Results taken from PubChem BioAssay (NCI).
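Step 1: Grow cells in 96-well plates. Step 2: Expose to compound for 48 hours at 5 concentrations. Step 3: Interpolate endpoints linearly; if unreached, use highest concentration. GI50 marks 50% less growth. The concentration for full growth arrest is given as TGI.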

How the values were obtained:
Assay in all cases: growth of human tumour cells (NCI), 48 h
[1] = tested on: RPMI-8226 leukemia
[2] = tested on: OVCAR-3 ovarian
[3] = tested on: MDA-MB-435
[4] = tested on: HT29 colon
[5] = tested on: PC-3 prostate
[6] = tested on: DU-145 prostate
[7] = tested on: HCT-116 colon
[8] = tested on: NCI-H226 lung
[9] = tested on: COLO 205 colon
[10] = tested on: U251 CNS
[11] = tested on: NCI/ADR-RES ovarian
[12] = tested on: LOX IMVI melanoma
[13] = tested on: EKVX NSCLC

Row | Structure (SMILES) | TGI [1] [µM] | TGI [2] [µM] | TGI [3] [µM] | TGI [4] [µM] | TGI [5] [µM] | TGI [6] [µM] | TGI [7] [µM] | TGI [8] [µM] | TGI [9] [µM] | TGI [10] [µM] | TGI [11] [µM] | TGI [12] [µM] | TGI [13] [µM] | GI50 [2] [µM] | GI50 [7] [µM] | GI50 [12] [µM] | GI50 [13] [µM] | GI50 [9] [µM] | GI50 [10] [µM] | GI50 [11] [µM]
1 | CCCCOc1ccc2c(c1)CC[C@@H]1[C@@H]2CC[C@]2(C)C(=O)N(CCCC)C(=O)C[C@@H]12 | > 100 | > 100 | > 100 | > 100 | > 100 | > 100 | > 100 | > 100 | > 100 | > 100 | > 100 |  |  |  |  |  |  |  |  | 
2 | CCOC(=O)C1=C(c2ccccc2)C12N(Cc1ccccc1)C(=O)C2(c1ccccc1)c1ccccc1 (stereo not given) | > 100 | > 100 | > 100 | > 100 | 75.5 | > 100 | > 100 | 95.4 | 60.1 | > 100 |  | > 100 | > 100 |  |  |  |  |  |  | 
3 | N#Cc1ccc(C2Oc3ccc(Cl)cc3C=C2[N+](=O)[O-])cc1 (stereo not given) | 1.25 | 3.04 | 3.56 | 7.89 | 3.37 | 6.07 | 0.987 | 29.6 | 1.87 | 3.31 | > 100 | 3.02 | 3.42 |  |  |  |  |  |  | 
4 | Cc1ccc(C#CS(=O)(=O)C(F)(F)F)cc1 | > 100 | > 100 |  | > 100 |  |  | > 100 | > 100 | > 100 | > 100 | > 100 | > 31.6 | > 100 |  |  |  |  |  |  | 
5 | COc1cc(-c2nc3cc(Cl)c(Cl)cc3[nH]2)ccc1OCC(=O)N=Nc1c(O)[nH]c2ccc(Cl)cc12 |  | 1.57 |  |  |  |  | 1.2 |  | 1.22 | 0.565 | > 100 | 0.738 | > 100 | 0.446 | 0.284 | 0.233 | 1.7 | 0.344 | 0.203 | > 100
